# Like-named read-outs stand apart in the source and are kept apart here.
# Experiments:
# [1] = Stability of AAs in rat plasma (QC samples, HPLC-MS/MS); format: in vitro ADME; conditions: n = 5; for Short-term stability (RSD/%): fresh rat plasma at room temperature for 24 h before sample preparation; for Post-preparation stability (RSD/%): prepared rat plasma samples at room temperature for 24 h; for Long-term stability (RSD/%): rat plasma stored at –20 °C for 14 days; for Freeze-thaw stability (RSD/%): rat plasma, three freeze-thaw cycles (–20 °C 24 h, thawed at room temperature)
# In short: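 Rat plasma QC samples tested over three freeze-thaw cycles (–20 °C 24 h, thawed at room temperature), 14 days at –20 °C, 24 h at room temperature before preparation, and 24 h post-preparation, by HPLC-MS/MS. Mean concentrations compared with freshly prepared samples; bias within ±15% accepted.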
# [2] = Multi-component pharmacokinetics of AAs in rats after oral administration of AF and HAF extracts (HPLC-MS/MS of plasma); parameters: species or system Sprague–Dawley (SD) rats; conditions: Sprague-Dawley, rat, in vivo
# In short: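 Rats were fasted 12 h and given AF or HAF extracts orally in 0.5% CMC–Na at 3.0, 8.0 or 15.0 mg/kg (as AA I), n = 6 per group. Ocular-vein plasma was sampled 0–24 h, ethyl-acetate extracted with internal standard, and analysed by C18 HPLC-MS/MS (positive ESI, MRM). Cmax was observed and other parameters model-fitted.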
# [3] = high QC conc ng/mL: AA I 1830, AA II 3200, AA C 2980, AA D 3680, 7-OH AA I 3280
# [4] = low QC conc ng/mL: AA I 1.83, AA II 8.00, AA C 186.3, AA D 36.8, 7-OH AA I 82.0
# [5] = middle QC conc ng/mL: AA I 457.5, AA II 400, AA C 372.5, AA D 460, 7-OH AA I 410
# [6] = 3 mg/kg, AF extract, low dose (3.0 mg/kg as AA I), analyte dose mg/kg: AA I 3.0, AA II 0.21, AA C 1.42, AA D 1.60, 7-OH AA I 2.33, n = 6
# [7] = 3 mg/kg, HAF extract, low dose (3.0 mg/kg as AA I), analyte dose mg/kg: AA I 3.0, AA II 0.26, AA C 1.53, AA D 1.51, 7-OH AA I 2.48, n = 6
# [8] = 8 mg/kg, AF extract, mid dose (8.0 mg/kg as AA I), analyte dose mg/kg: AA I 8.0, AA II 0.56, AA C 3.78, AA D 4.26, 7-OH AA I 6.22, n = 6
# [9] = 8 mg/kg, HAF extract, mid dose (8.0 mg/kg as AA I), analyte dose mg/kg: AA I 8.0, AA II 0.69, AA C 4.09, AA D 4.03, 7-OH AA I 6.62, n = 6
# [10] = 15 mg/kg, AF extract, high dose (15.0 mg/kg as AA I), analyte dose mg/kg: AA I 15.0, AA II 1.05, AA C 7.09, AA D 8.00, 7-OH AA I 11.66, n = 6
# [11] = 15 mg/kg, HAF extract, high dose (15.0 mg/kg as AA I), analyte dose mg/kg: AA I 15.0, AA II 1.29, AA C 7.66, AA D 7.56, 7-OH AA I 12.41, n = 6
smiles,measurement,setting,value
COc1cccc2c1cc([N+](=O)[O-])c1c(C(=O)O)cc3c(c12)OCO3 [AA I],Short-term stability (RSD/%),[1]; [3],6.5%
same,Short-term stability (RSD/%),[1]; [4],0.58%
same,Short-term stability (RSD/%),[1]; [5],8.7%
same,Post-preparation stability (RSD/%),[1]; [3],4.5%
same,Post-preparation stability (RSD/%),[1]; [4],0.65%
same,Post-preparation stability (RSD/%),[1]; [5],2.0%
same,Long-term stability (RSD/%),[1]; [3],7.6%
same,Long-term stability (RSD/%),[1]; [4],0.28%
same,Long-term stability (RSD/%),[1]; [5],6.9%
same,Freeze-thaw stability (RSD/%),[1]; [3],12.9%
same,Freeze-thaw stability (RSD/%),[1]; [4],1.1%
same,Freeze-thaw stability (RSD/%),[1]; [5],10.3%
same,AUC(0-inf),[2]; [6],6080 ± 1260 ng·h/mL
same,Cmax,[2]; [6],1700 ± 571 ng/mL
same,Tmax,[2]; [6],0.5 ± 0.09 h
same,CL/F,"[2]; 3 mg/kg, AF extract, low dose (3.0 mg/kg as AA I), analyte dose mg/kg: AA I 3.0, AA II 0.21, AA C 1.42, AA D 1.60, 7-OH AA I 2.33, n = 6, read-out: CLz/F (converted)",9.5 mL/min/kg
same,Vd/F,"[2]; 3 mg/kg, AF extract, low dose (3.0 mg/kg as AA I), analyte dose mg/kg: AA I 3.0, AA II 0.21, AA C 1.42, AA D 1.60, 7-OH AA I 2.33, n = 6, read-out: Vz/F",2.85 ± 0.15 L/kg
same,half-life,"[2]; 3 mg/kg, AF extract, low dose (3.0 mg/kg as AA I), analyte dose mg/kg: AA I 3.0, AA II 0.21, AA C 1.42, AA D 1.60, 7-OH AA I 2.33, n = 6, read-out: t 1/2z (converted)",3.5 ± 0.5 h
same,AUC(0-inf),[2]; [7],5230 ± 896 ng·h/mL
same,Cmax,[2]; [7],1070 ± 223 ng/mL
same,Tmax,[2]; [7],0.39 ± 0.08 h
same,CL/F,"[2]; 3 mg/kg, HAF extract, low dose (3.0 mg/kg as AA I), analyte dose mg/kg: AA I 3.0, AA II 0.26, AA C 1.53, AA D 1.51, 7-OH AA I 2.48, n = 6, read-out: CLz/F (converted)",9.83 mL/min/kg
same,Vd/F,"[2]; 3 mg/kg, HAF extract, low dose (3.0 mg/kg as AA I), analyte dose mg/kg: AA I 3.0, AA II 0.26, AA C 1.53, AA D 1.51, 7-OH AA I 2.48, n = 6, read-out: Vz/F",2.75 ± 0.24 L/kg
same,half-life,"[2]; 3 mg/kg, HAF extract, low dose (3.0 mg/kg as AA I), analyte dose mg/kg: AA I 3.0, AA II 0.26, AA C 1.53, AA D 1.51, 7-OH AA I 2.48, n = 6, read-out: t 1/2z (converted)",3.22 ± 0.46 h
same,AUC(0-inf),[2]; [8],12800 ± 1860 ng·h/mL
same,Cmax,[2]; [8],3820 ± 450 ng/mL
same,Tmax,[2]; [8],0.56 ± 0.09 h
same,CL/F,"[2]; 8 mg/kg, AF extract, mid dose (8.0 mg/kg as AA I), analyte dose mg/kg: AA I 8.0, AA II 0.56, AA C 3.78, AA D 4.26, 7-OH AA I 6.22, n = 6, read-out: CLz/F (converted)",10.8 mL/min/kg
same,Vd/F,"[2]; 8 mg/kg, AF extract, mid dose (8.0 mg/kg as AA I), analyte dose mg/kg: AA I 8.0, AA II 0.56, AA C 3.78, AA D 4.26, 7-OH AA I 6.22, n = 6, read-out: Vz/F",5.4 ± 0.48 L/kg
same,half-life,"[2]; 8 mg/kg, AF extract, mid dose (8.0 mg/kg as AA I), analyte dose mg/kg: AA I 8.0, AA II 0.56, AA C 3.78, AA D 4.26, 7-OH AA I 6.22, n = 6, read-out: t 1/2z (converted)",5.58 ± 0.65 h
same,AUC(0-inf),[2]; [9],8990 ± 1780 ng·h/mL
same,Cmax,[2]; [9],2000 ± 313 ng/mL
same,Tmax,[2]; [9],0.42 ± 0.08 h
same,CL/F,"[2]; 8 mg/kg, HAF extract, mid dose (8.0 mg/kg as AA I), analyte dose mg/kg: AA I 8.0, AA II 0.69, AA C 4.09, AA D 4.03, 7-OH AA I 6.62, n = 6, read-out: CLz/F (converted)",11.3 mL/min/kg
same,Vd/F,"[2]; 8 mg/kg, HAF extract, mid dose (8.0 mg/kg as AA I), analyte dose mg/kg: AA I 8.0, AA II 0.69, AA C 4.09, AA D 4.03, 7-OH AA I 6.62, n = 6, read-out: Vz/F",4.58 ± 0.37 L/kg
same,half-life,"[2]; 8 mg/kg, HAF extract, mid dose (8.0 mg/kg as AA I), analyte dose mg/kg: AA I 8.0, AA II 0.69, AA C 4.09, AA D 4.03, 7-OH AA I 6.62, n = 6, read-out: t 1/2z (converted)",4.72 ± 0.52 h
same,AUC(0-inf),[2]; [10],26800 ± 3260 ng·h/mL
same,Cmax,[2]; [10],5890 ± 426 ng/mL
same,Tmax,[2]; [10],0.69 ± 0.1 h
same,CL/F,"[2]; 15 mg/kg, AF extract, high dose (15.0 mg/kg as AA I), analyte dose mg/kg: AA I 15.0, AA II 1.05, AA C 7.09, AA D 8.00, 7-OH AA I 11.66, n = 6, read-out: CLz/F (converted)",14.5 mL/min/kg
same,Vd/F,"[2]; 15 mg/kg, AF extract, high dose (15.0 mg/kg as AA I), analyte dose mg/kg: AA I 15.0, AA II 1.05, AA C 7.09, AA D 8.00, 7-OH AA I 11.66, n = 6, read-out: Vz/F",7.13 ± 0.57 L/kg
same,half-life,"[2]; 15 mg/kg, AF extract, high dose (15.0 mg/kg as AA I), analyte dose mg/kg: AA I 15.0, AA II 1.05, AA C 7.09, AA D 8.00, 7-OH AA I 11.66, n = 6, read-out: t 1/2z (converted)",5.46 ± 0.53 h
same,AUC(0-inf),[2]; [11],11800 ± 1770 ng·h/mL
same,Cmax,[2]; [11],3470 ± 352 ng/mL
same,Tmax,[2]; [11],0.47 ± 0.08 h
same,CL/F,"[2]; 15 mg/kg, HAF extract, high dose (15.0 mg/kg as AA I), analyte dose mg/kg: AA I 15.0, AA II 1.29, AA C 7.66, AA D 7.56, 7-OH AA I 12.41, n = 6, read-out: CLz/F (converted)",12 mL/min/kg
same,Vd/F,"[2]; 15 mg/kg, HAF extract, high dose (15.0 mg/kg as AA I), analyte dose mg/kg: AA I 15.0, AA II 1.29, AA C 7.66, AA D 7.56, 7-OH AA I 12.41, n = 6, read-out: Vz/F",5.53 ± 0.52 L/kg
same,half-life,"[2]; 15 mg/kg, HAF extract, high dose (15.0 mg/kg as AA I), analyte dose mg/kg: AA I 15.0, AA II 1.29, AA C 7.66, AA D 7.56, 7-OH AA I 12.41, n = 6, read-out: t 1/2z (converted)",5.32 ± 0.54 h

# — paper PMC5303205, “Comparative studies on the multi-component pharmacokinetics of Aristolochiae Fructus and honey-fried Aristolochiae Fructus extracts after oral administration in rats” (BMC Complementary and Alternative Medicine, 2017)
